We go through 19 compounds from ChEMBL document CHEMBL4680217, “Discovery of PROTAC BCL-X degraders as potent anticancer agents with low on-target platelet toxicity” (Eur J Med Chem, 2020).

For data set [1], the target named is T1, von Hippel-Lindau disease tumor suppressor/Bcl-2-like protein 1 (Homo sapiens, UniProt Q07817+P40337). Put plainly: Protac activity at VHL/BCL-XL in human MOLT-4 cells assessed as induction of BCL-XL degradation measured after 16 hrs by immunoblotting analysis. Format: cell-based. Background: A western blot detects proteins with antibodies after separation by electrophoresis.
Target sequence in this assay (Q07817 whole entry): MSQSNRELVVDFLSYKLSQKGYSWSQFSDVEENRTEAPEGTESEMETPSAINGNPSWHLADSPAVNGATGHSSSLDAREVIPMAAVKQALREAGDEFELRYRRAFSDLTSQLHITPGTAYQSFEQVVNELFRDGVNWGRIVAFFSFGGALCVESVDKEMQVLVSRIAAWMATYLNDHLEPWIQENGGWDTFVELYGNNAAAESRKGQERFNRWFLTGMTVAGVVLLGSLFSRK
Target sequence in this assay (P40337 whole entry): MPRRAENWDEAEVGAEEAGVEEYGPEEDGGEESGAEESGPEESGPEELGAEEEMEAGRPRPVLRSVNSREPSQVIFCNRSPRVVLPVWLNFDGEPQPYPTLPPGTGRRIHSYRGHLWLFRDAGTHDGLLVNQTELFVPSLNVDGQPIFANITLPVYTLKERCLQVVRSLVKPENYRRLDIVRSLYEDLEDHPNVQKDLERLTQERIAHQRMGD

Data set [2] deals with MOLT-4. Put plainly: Antiproliferative activity against human MOLT-4 cells assessed as reduction in cell viability measured after 48 hrs by MTS assay. In kind it is functional, cell-based. To be noted: MOLT-4, 48 h. In general terms: Tetrazolium assays rely on reduction of a dye to a coloured formazan, in cell work by metabolically active cells.
Data set [3] concerns the target T1, von Hippel-Lindau disease tumor suppressor/Bcl-2-like protein 1. The experiment in a line: Protac activity at VHL/BCL-XL in human MOLT-4 cells assessed as induction of BCL-XL degradation by measuring remaining BCL-XL level at 100 nM measured after 16 hrs by immunoblotting analysis relative to control. In kind it is cell-based.
Target sequence in this assay (P40337 whole entry, looked up): as the sequence (P40337 whole entry) above
Target sequence in this assay (Q07817 whole entry, looked up): as the sequence (Q07817 whole entry) above
The target of data set [4] is von Hippel-Lindau disease tumor suppressor/Apoptosis regulator Bcl-2 (Homo sapiens) (UniProt P10415+P40337). Put plainly: Protac activity at VHL/BCL2 in human MOLT-4 cells assessed as induction of BCL2 degradation at 100 nM measured after 16 hrs by immunoblotting analysis. In kind it is cell-based.
In data set [5] the test system is RS4-11. The experiment in a line: Antiproliferative activity against human RS4-11 cells assessed as reduction in cell viability measured after 48 hrs by MTS assay. The settings on record: RS4-11, 48 h. In kind it is functional, cell-based.
Data set [6] concerns NCI-H146. The experiment in a line: Antiproliferative activity against human NCI-H146 cells assessed as reduction in cell viability measured after 48 hrs by MTS assay. Format: functional, cell-based. The settings on record: NCI-H146, 48 h.
Data set [7] is described as follows: Toxicity in human platelet assessed as reduction in cell viability measured after 48 hrs by MTS assay. In kind it is tissue-based. To be noted: human platelets.
Data set [8] can be described thus: Selectivity index, ratio of IC50 for human platelet to IC50 for human MOLT-4 cells.
The target of data set [9] is T2, Protein cereblon/Bcl-2-like protein 1 (Homo sapiens, UniProt Q07817+Q96SW2). The experiment in a line: Protac activity at CRBN/BCL-XL in human MOLT-4 cells assessed as induction of BCL-XL degradation measured after 16 hrs by immunoblotting analysis. In kind it is cell-based.
Target sequence in this assay (Q07817 whole entry): as above
Target sequence in this assay (Q96SW2 whole entry): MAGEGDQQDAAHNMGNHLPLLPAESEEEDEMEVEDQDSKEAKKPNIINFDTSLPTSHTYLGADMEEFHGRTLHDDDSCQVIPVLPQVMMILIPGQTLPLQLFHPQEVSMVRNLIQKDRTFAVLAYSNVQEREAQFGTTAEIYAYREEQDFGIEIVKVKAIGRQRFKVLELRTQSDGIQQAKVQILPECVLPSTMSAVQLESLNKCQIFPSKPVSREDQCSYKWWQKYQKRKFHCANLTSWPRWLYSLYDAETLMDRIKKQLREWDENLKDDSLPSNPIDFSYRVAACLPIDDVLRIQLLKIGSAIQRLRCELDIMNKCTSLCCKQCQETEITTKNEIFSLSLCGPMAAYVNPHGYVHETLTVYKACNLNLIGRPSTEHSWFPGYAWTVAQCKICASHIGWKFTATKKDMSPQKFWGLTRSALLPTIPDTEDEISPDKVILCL
Data set [10] addresses T2, Protein cereblon/Bcl-2-like protein 1. Put plainly: Protac activity at CRBN/BCL-XL in human MOLT-4 cells assessed as induction of BCL-XL degradation by measuring remaining BCL-XL level at 50 nM measured after 16 hrs by immunoblotting analysis relative to control. In kind it is cell-based.
Target sequence in this assay (Q07817 whole entry, looked up): as the sequence (Q07817 whole entry) above
Target sequence in this assay (Q96SW2 whole entry, looked up): as the sequence (Q96SW2 whole entry) above
Data set [11] concerns the target Protein cereblon/Apoptosis regulator Bcl-2 (Homo sapiens) (UniProt P10415+Q96SW2). Put plainly: Protac activity at CRBN/BCL2 in human MOLT-4 cells assessed as induction of BCL2 degradation at 50 nM measured after 16 hrs by immunoblotting analysis. In kind it is cell-based.

Structures are written as SMILES. Calls of active or inactive are those of the source. The rule behind the calls is not given here.

Chain of von Hippel-Lindau disease tumor suppressor/Apoptosis regulator Bcl-2 (Homo sapiens) (P10415 whole entry, looked up): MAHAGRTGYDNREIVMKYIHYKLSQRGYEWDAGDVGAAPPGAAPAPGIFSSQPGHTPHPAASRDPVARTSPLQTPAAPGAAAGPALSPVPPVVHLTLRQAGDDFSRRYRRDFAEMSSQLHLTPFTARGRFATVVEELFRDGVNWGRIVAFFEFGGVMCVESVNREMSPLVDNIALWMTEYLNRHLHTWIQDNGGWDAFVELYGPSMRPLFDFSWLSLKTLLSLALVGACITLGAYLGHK
Chain of von Hippel-Lindau disease tumor suppressor/Apoptosis regulator Bcl-2 (Homo sapiens) (P40337 whole entry, looked up): as the sequence (P40337 whole entry) above
Chain of Protein cereblon/Apoptosis regulator Bcl-2 (Homo sapiens) (P10415 whole entry, looked up): as the sequence (P10415 whole entry, looked up) above
Chain of Protein cereblon/Apoptosis regulator Bcl-2 (Homo sapiens) (Q96SW2 whole entry, looked up): as the sequence (Q96SW2 whole entry) above

Usually DC50 stands for the midpoint of the concentration-degradation curve. Broadly, the IC50 is the concentration that gives 50% inhibition. Turning to `Cc1ncsc1-c1ccc([C@H](C)NC(=O)[C@@H]2C[C@@H](O)CN2C(=O)[C@@H](NC(=O)CCCCCN2CCN(CC[C@H](CSc3ccccc3)Nc3ccc(S(=O)(=O)NC(=O)c4ccc(N5CCN(CC6=C(c7ccc(Cl)cc7)CCC(C)(C)C6)CC5)cc4)cc3S(=O)(=O)C(F)(F)F)CC2)C(C)(C)C)cc1`, in [1], the DC50 turned out to be 93 nM. The concentration for half-maximal inhibition (IC50) in data set [2] was 82 nM; in data set [5], 76 nM; in [6] it was 203 nM. For the same compound, the Activity in [3] amounted to 43%. Besides, the outcome in data set [4] was inactive. In addition, the IC50 at 48 h in [7] is over 10 µM. In data set [8], the “Ratio IC50” value is on record as over 122.

For the compound `Cc1ncsc1-c1ccc([C@H](C)NC(=O)[C@@H]2C[C@@H](O)CN2C(=O)[C@@H](NC(=O)CCCCN(C)CC[C@H](CSc2ccccc2)Nc2ccc(S(=O)(=O)NC(=O)c3ccc(N4CCN(CC5=C(c6ccc(Cl)cc6)CCC(C)(C)C5)CC4)cc3)cc2S(=O)(=O)C(F)(F)F)C(C)(C)C)cc1`, the IC50 in data set [2] amounted to 1240 nM. In addition, the Activity in data set [3] is 75%. The outcome in [4] was inactive.

Regarding `Cc1ncsc1-c1ccc([C@H](C)NC(=O)[C@@H]2C[C@@H](O)CN2C(=O)[C@@H](NC(=O)CCCCCCCN(C)CC[C@H](CSc2ccccc2)Nc2ccc(S(=O)(=O)NC(=O)c3ccc(N4CCN(CC5=C(c6ccc(Cl)cc6)CCC(C)(C)C5)CC4)cc3)cc2S(=O)(=O)C(F)(F)F)C(C)(C)C)cc1`, in data set [2], the IC50 worked out at 147 nM. Moreover, in [3], the Activity stood at 45%. Also, the outcome in data set [4] was inactive.

As for `Cc1ncsc1-c1ccc([C@H](C)NC(=O)[C@@H]2C[C@@H](O)CN2C(=O)[C@@H](NC(=O)CCCCCC(=O)N(C)CC[C@H](CSc2ccccc2)Nc2ccc(S(=O)(=O)NC(=O)c3ccc(N4CCN(CC5=C(c6ccc(Cl)cc6)CCC(C)(C)C5)CC4)cc3)cc2S(=O)(=O)C(F)(F)F)C(C)(C)C)cc1`, the IC50 in data set [2] was over 2000 nM. Besides, the Activity in data set [3] came out at 78%. In addition, the result in data set [4] was inactive.

As to `Cc1ncsc1-c1ccc([C@H](C)NC(=O)[C@@H]2C[C@@H](O)CN2C(=O)[C@@H](NC(=O)CCCCCCN(C)CC[C@H](CSc2ccccc2)Nc2ccc(S(=O)(=O)NC(=O)c3ccc(N4CCN(CC5=C(c6ccc(Cl)cc6)CCC(C)(C)C5)CC4)cc3)cc2S(=O)(=O)C(F)(F)F)C(C)(C)C)cc1`, the DC50 in [1] amounted to 71 nM. The results for the IC50 in data set [2], in data set [5] and in [6] were 81.3 nM, 189 nM and 265 nM, respectively. Further, the Activity in data set [3] was found to be 28%. Also, in data set [4], the result was inactive. For the same compound, in data set [7], the IC50 at 48 h was over 10 µM. Besides, in data set [8], the “Ratio IC50” value was over 123.

Consider `Cc1ncsc1-c1ccc([C@H](C)NC(=O)[C@@H]2C[C@@H](O)CN2C(=O)[C@@H](NC(=O)COCCOCCOCCOCCN(C)CC[C@H](CSc2ccccc2)Nc2ccc(S(=O)(=O)NC(=O)c3ccc(N4CCN(CC5=C(c6ccc(Cl)cc6)CCC(C)(C)C5)CC4)cc3)cc2S(=O)(=O)C(F)(F)F)C(C)(C)C)cc1`, for which the IC50 in data set [2] stood at 206 nM. In addition, the Activity in data set [3] stood at 33%. Further, the result in [4] was inactive.

With `Cc1ncsc1-c1ccc([C@H](C)NC(=O)[C@@H]2C[C@@H](O)CN2C(=O)[C@@H](NC(=O)COCCOCC(=O)N2CCN(CC[C@H](CSc3ccccc3)Nc3ccc(S(=O)(=O)NC(=O)c4ccc(N5CCN(CC6=C(c7ccc(Cl)cc7)CCC(C)(C)C6)CC5)cc4)cc3S(=O)(=O)C(F)(F)F)CC2)C(C)(C)C)cc1`, the half-maximal inhibitory concentration (IC50) in data set [2] was 512 nM. Further, the Activity in [3] came to 79%. In addition, in [4], the outcome was inactive.

With `CN(CCCCCCCn1cc(COCCOCCNc2cccc3c2C(=O)N([C@@H]2CCC(=O)NC2=O)C3=O)nn1)CC[C@H](CSc1ccccc1)Nc1ccc(S(=O)(=O)NC(=O)c2ccc(N3CCN(CC4=C(c5ccc(Cl)cc5)CCC(C)(C)C4)CC3)cc2)cc1S(=O)(=O)C(F)(F)F`, in [9], the DC50 amounted to 6.3 nM. Further, the IC50 in [2] turned out to be 29.2 nM; in data set [5] it was 62.2 nM; in data set [6], 61.7 nM. The Activity in data set [10] was found to be 18%. In addition, the result in [11] was inactive. The IC50 at 48 h in [7] was 6.25 µM. In addition, the “Ratio IC50” value in data set [8] amounted to 214.

Turning to `O=C1CCC(N2C(=O)c3cccc(NCCOCCOCc4cn(CCCC(=O)N5CCN(CC#Cc6ccc(OCCCc7sc(N8CCc9cccc(C(=O)Nc%10nc%11ccccc%11s%10)c9C8)nc7C(=O)O)c(F)c6)CC5)nn4)c3C2=O)C(=O)N1` (stereo not given), the DC50 in [9] came out at 50 nM.

Regarding `CN(CCCNc1cccc2c1C(=O)N([C@@H]1CCC(=O)NC1=O)C2=O)CC[C@H](CSc1ccccc1)Nc1ccc(S(=O)(=O)NC(=O)c2ccc(N3CCN(CC4=C(c5ccc(Cl)cc5)CCC(C)(C)C4)CC3)cc2)cc1S(=O)(=O)C(F)(F)F`, the DC50 in [9] was 10.6 nM. Also, the IC50 in data set [2] was found to be 32.5 nM; in data set [5], 129 nM; in data set [6], 70.2 nM. The Activity in data set [10] amounted to 31%. Besides, the outcome in data set [11] was inactive. Further, in [7], the IC50 at 48 h amounted to 3.3 µM. The “Ratio IC50” value in data set [8] is listed as 101.

As for `Cc1ncsc1-c1ccc([C@H](C)NC(=O)[C@@H]2C[C@@H](O)CN2C(=O)[C@@H](NC(=O)COCCOCCOCCN(C)CC[C@H](CSc2ccccc2)Nc2ccc(S(=O)(=O)NC(=O)c3ccc(N4CCN(CC5=C(c6ccc(Cl)cc6)CCC(C)(C)C5)CC4)cc3)cc2S(=O)(=O)C(F)(F)F)C(C)(C)C)cc1`, the IC50 in [2] is 200 nM. Besides, the Activity in data set [3] is 33%. In addition, the outcome in data set [4] was inactive.

Regarding `Cc1ncsc1-c1ccc([C@H](C)NC(=O)[C@@H]2C[C@@H](O)CN2C(=O)[C@@H](NC(=O)CCCCCN(C)CC[C@H](CSc2ccccc2)Nc2ccc(S(=O)(=O)NC(=O)c3ccc(N4CCN(CC5=C(c6ccc(Cl)cc6)CCC(C)(C)C5)CC4)cc3)cc2S(=O)(=O)C(F)(F)F)C(C)(C)C)cc1`, the concentration for half-maximal inhibition (IC50) in data set [2] is 460 nM. Besides, the Activity in data set [3] amounted to 60%. The result in data set [4] was inactive.

For `Cc1ncsc1-c1ccc([C@H](C)NC(=O)[C@@H]2C[C@@H](O)CN2C(=O)[C@@H](NC(=O)CCCCCCN2CCN(CC[C@H](CSc3ccccc3)Nc3ccc(S(=O)(=O)NC(=O)c4ccc(N5CCN(CC6=C(c7ccc(Cl)cc7)CCC(C)(C)C6)CC5)cc4)cc3S(=O)(=O)C(F)(F)F)CC2)C(C)(C)C)cc1`, in data set [2], the IC50 is 94.5 nM. For the same compound, the Activity in data set [3] came to 62%. The result in data set [4] was inactive.

As for `Cc1ncsc1-c1ccc([C@H](C)NC(=O)[C@@H]2C[C@@H](O)CN2C(=O)[C@@H](NC(=O)COCCCOCC(=O)N2CCN(CC[C@H](CSc3ccccc3)Nc3ccc(S(=O)(=O)NC(=O)c4ccc(N5CCN(CC6=C(c7ccc(Cl)cc7)CCC(C)(C)C6)CC5)cc4)cc3S(=O)(=O)C(F)(F)F)CC2)C(C)(C)C)cc1`, the IC50 in [2] came out at 232 nM. Moreover, the Activity in [3] amounted to 48%. Moreover, in [4], the outcome was inactive.

With `Cc1ncsc1-c1ccc([C@H](C)NC(=O)[C@@H]2C[C@@H](O)CN2C(=O)[C@@H](NC(=O)CCOCCN2CCN(CC[C@H](CSc3ccccc3)Nc3ccc(S(=O)(=O)NC(=O)c4ccc(N5CCN(CC6=C(c7ccc(Cl)cc7)CCC(C)(C)C6)CC5)cc4)cc3S(=O)(=O)C(F)(F)F)CC2)C(C)(C)C)cc1`, the 50% inhibitory concentration (IC50) in [2] is 151 nM. Further, the Activity in data set [3] is 72%. Besides, the outcome in data set [4] was inactive.

Take `Cc1ncsc1-c1ccc([C@H](C)NC(=O)[C@@H]2C[C@@H](O)CN2C(=O)[C@@H](NC(=O)COCCOCCN(C)CC[C@H](CSc2ccccc2)Nc2ccc(S(=O)(=O)NC(=O)c3ccc(N4CCN(CC5=C(c6ccc(Cl)cc6)CCC(C)(C)C5)CC4)cc3)cc2S(=O)(=O)C(F)(F)F)C(C)(C)C)cc1`: the IC50 in [2] is 97 nM. Besides, the Activity in data set [3] was determined as 24%. In addition, the outcome in [4] was inactive.

As to `Cc1ncsc1-c1ccc([C@H](C)NC(=O)[C@@H]2C[C@@H](O)CN2C(=O)[C@@H](NC(=O)CCC(=O)N2CCN(CC[C@H](CSc3ccccc3)Nc3ccc(S(=O)(=O)NC(=O)c4ccc(N5CCN(CC6=C(c7ccc(Cl)cc7)CCC(C)(C)C6)CC5)cc4)cc3S(=O)(=O)C(F)(F)F)CC2)C(C)(C)C)cc1`, the IC50 in [2] is over 2000 nM. Also, the Activity in [3] was 92%. Also, in data set [4], the outcome was inactive.

With `Cc1ncsc1-c1ccc([C@H](C)NC(=O)[C@@H]2C[C@@H](O)CN2C(=O)[C@@H](NC(=O)CCCCCCCCN(C)CC[C@H](CSc2ccccc2)Nc2ccc(S(=O)(=O)NC(=O)c3ccc(N4CCN(CC5=C(c6ccc(Cl)cc6)CCC(C)(C)C5)CC4)cc3)cc2S(=O)(=O)C(F)(F)F)C(C)(C)C)cc1`, the IC50 in data set [2] is 139 nM. In addition, the Activity in data set [3] was determined as 49%. Moreover, in data set [4], the outcome was inactive.

For the compound `Cc1ncsc1-c1ccc([C@H](C)NC(=O)[C@@H]2C[C@@H](O)CN2C(=O)[C@@H](NC(=O)CCCCC(=O)N2CCN(CC[C@H](CSc3ccccc3)Nc3ccc(S(=O)(=O)NC(=O)c4ccc(N5CCN(CC6=C(c7ccc(Cl)cc7)CCC(C)(C)C6)CC5)cc4)cc3S(=O)(=O)C(F)(F)F)CC2)C(C)(C)C)cc1`, the IC50 in [2] stood at 467 nM. For the same compound, the Activity in [3] worked out at 52%. Moreover, the outcome in [4] was inactive.
